Experimental data: patent US8952034B2, “Fused heterocyclic compounds as ion channel modulators” (Gilead Sciences, Inc., priority 2009, dated 2015)

target: wild-type human cardiac sodium channel, hNav1.5 (Homo sapiens, UniProt Q14524); test: Late INa screening assay (automated whole cell patch clamp, PatchXpress); assay type: cell-based; settings: compound at 1 μM; HEK293 cells expressing hNav1.5; late INa generated with 10 μM Tefluthrin (or 50 nM ATX II); read-out: LateINa_1 uM (percent block of late INa)
Sequence (Q14524 whole entry): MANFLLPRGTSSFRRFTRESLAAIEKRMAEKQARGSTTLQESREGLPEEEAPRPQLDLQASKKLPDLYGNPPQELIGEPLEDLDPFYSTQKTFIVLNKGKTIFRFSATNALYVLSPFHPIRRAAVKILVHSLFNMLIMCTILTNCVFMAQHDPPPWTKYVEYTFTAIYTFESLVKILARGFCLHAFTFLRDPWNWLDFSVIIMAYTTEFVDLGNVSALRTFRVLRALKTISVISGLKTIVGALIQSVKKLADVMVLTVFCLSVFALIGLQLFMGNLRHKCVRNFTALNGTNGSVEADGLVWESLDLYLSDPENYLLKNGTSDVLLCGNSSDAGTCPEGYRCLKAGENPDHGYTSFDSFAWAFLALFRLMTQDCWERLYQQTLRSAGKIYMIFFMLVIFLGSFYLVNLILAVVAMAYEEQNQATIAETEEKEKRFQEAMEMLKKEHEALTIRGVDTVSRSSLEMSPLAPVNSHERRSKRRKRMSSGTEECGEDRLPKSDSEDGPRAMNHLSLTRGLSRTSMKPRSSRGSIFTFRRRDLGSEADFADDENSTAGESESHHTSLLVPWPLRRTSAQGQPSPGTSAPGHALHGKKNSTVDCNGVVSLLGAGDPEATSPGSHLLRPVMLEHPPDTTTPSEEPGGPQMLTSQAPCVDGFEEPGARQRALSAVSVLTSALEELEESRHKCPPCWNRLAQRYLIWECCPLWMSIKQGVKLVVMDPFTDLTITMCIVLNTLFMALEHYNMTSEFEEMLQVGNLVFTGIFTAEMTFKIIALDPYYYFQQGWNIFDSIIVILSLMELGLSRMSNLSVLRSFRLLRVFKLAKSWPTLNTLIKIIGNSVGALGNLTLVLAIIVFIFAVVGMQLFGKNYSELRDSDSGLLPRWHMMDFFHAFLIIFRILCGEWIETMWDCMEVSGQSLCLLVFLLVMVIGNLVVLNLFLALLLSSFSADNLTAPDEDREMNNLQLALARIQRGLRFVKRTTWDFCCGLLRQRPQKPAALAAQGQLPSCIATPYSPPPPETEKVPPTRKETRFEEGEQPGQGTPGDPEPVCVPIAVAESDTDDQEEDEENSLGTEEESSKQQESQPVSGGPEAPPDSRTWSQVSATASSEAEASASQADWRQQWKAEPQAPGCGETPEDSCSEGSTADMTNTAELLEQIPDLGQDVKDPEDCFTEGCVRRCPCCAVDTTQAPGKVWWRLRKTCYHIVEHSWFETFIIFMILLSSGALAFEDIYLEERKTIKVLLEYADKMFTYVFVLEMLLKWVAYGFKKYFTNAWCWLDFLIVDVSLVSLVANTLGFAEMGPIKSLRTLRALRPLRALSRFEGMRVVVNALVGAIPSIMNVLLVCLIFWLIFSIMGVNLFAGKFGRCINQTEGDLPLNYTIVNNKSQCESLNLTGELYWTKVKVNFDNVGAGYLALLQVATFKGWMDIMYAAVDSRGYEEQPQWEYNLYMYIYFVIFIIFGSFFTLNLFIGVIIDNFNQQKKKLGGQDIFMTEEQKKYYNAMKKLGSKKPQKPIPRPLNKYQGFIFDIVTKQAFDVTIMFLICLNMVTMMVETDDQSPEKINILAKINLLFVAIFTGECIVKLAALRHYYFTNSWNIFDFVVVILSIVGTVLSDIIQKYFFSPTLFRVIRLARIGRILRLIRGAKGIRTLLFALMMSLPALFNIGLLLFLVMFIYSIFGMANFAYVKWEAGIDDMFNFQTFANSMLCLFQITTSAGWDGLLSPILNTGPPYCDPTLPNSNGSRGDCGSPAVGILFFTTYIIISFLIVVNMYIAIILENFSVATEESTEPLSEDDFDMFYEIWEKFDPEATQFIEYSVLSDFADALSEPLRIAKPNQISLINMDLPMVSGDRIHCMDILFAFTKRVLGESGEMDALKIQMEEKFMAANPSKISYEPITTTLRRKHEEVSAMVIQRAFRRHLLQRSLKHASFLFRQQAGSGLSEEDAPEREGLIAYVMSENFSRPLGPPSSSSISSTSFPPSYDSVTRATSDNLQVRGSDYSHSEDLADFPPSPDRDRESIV
Method: The late sodium current (Late INa) and peak sodium current (Peak INa) assays are performed on an automated electrophysiology platform, PatchXpress 7000A (MDS Analytical Technologies, Sunnyvale, Calif.), which uses the whole cell patch clamp technique to measure currents through the cell membrane of up to 16 cells at a time. The assay uses an HEK293 (human embryonic kidney) cell line heterologously expressing the wild-type human cardiac sodium channel, hNav1.5, purchased from Millipore (Billerica, Mass.). No beta subunits were coexpressed with the Na channel alpha subunit. Cells are maintained with standard tissue culture procedures and stable channel expression is maintained with 400 μg/ml Geneticin in the culture medium. […] Experiments are carried out at 24-27° C.
For both the Late INa and Peak INa assays, series resistance compensation is set to 50% and whole-cell compensation is performed automatically. […] Currents through open sodium channels are automatically recorded and stored in the DataXpress2 database (MDS Analytical Technologies, Sunnyvale, Calif.). Analysis is performed using DataXpress2 analysis software and data are compiled in Excel.
Compound stocks are routinely made in glass vials to 10 mM in dimethyl sulfoxide (DMSO). In some cases, when compounds are not soluble in DMSO, they are made in 100% ethanol. Stocks are sonicated as necessary. The extracellular solution for screening Late INa is composed of: 140 mM NaCl, 4 mM KCl, 1.8 mM CaCl2, 0.75 mM MgCl2, and 5 mM HEPES with pH adjusted to 7.4 using NaOH. The extracellular solution for screening Peak INa is composed of: 20 mM NaCl, 120 mM N-methyl-D glucamine, 4 mM KCl, 1.8 mM CaCl2, 0.75 mM MgCl2, and 5 mM HEPES with pH adjusted to 7.4 using HCl. The intracellular solution used to perfuse the inside of the cells for both the Late INa and Peak INa assays contains: 120 mM CsF, 20 mM CsCl, 5 mM EGTA, 5 mM HEPES and pH adjusted to 7.4 with CsOH. […] The 0Na extracellular solution used at the end of each experiment for the Late INa and Peak INa assays to measure baseline current contains: 140 mM N-methyl-D-glucamine; 4 mM KCl; 1.8 mM CaCl2; 0.75 mM MgCl2; 5 mM HEPES and pH was adjusted to 7.4 with HCl.
For the Late INa assay, sodium channels are activated every 10 seconds (0.1 Hz) by depolarizing the cell membrane to −20 mV for 250 milliseconds (ms) from a holding potential of −120 mV. In response to a −20 mV voltage step, typical Nav1.5 sodium currents activate rapidly to a peak negative current and then inactivate nearly completely within […].
All compounds are tested to determine their activity in blocking the late sodium current. Late INa current is generated by adding 10 μM Tefluthrin (pyrethroid) to the extracellular solution while recording Na currents For some experiments, 50 nM ATX II (sea anemone toxin), another late INa activator, was used to generate the late component. […] After establishing the whole cell recording configuration, late INa activators are added to each well 4 times over a 16-17 minute period so that the late component of the Na current reaches a stable value. […] Measurements are made at the end of exposure to the third compound addition and values are normalized to the current level when all Na^+ is removed from the extracellular solution after two additions of 0Na-ECF. Results are reported as percent block of late INa

| SMILES | inhibition at 1 µM |
| --- | --- |
| CC(C)c1nnc2ccc(-c3ccc(Oc4ccccc4)cc3)nn12 [BHN-32, 6-(4-phenoxyphenyl)-3-(propan-2-yl)[1,2,4]triazolo[4,3-b]pyridazine] | 63.4% |
| FC(F)(F)c1nnc2ccc(-c3cccc(Oc4ccccc4)c3)cn12 [BHN-9, 6-(3-phenoxyphenyl)-3-(trifluoromethyl)[1,2,4]triazolo[4,3-a]pyridine] | 29.6% |
| CC(C)c1nnc2ccc(-c3cc(F)c(Oc4ccccc4)c(F)c3)nn12 [BHN-201, 6-(3,5-difluoro-4-phenoxyphenyl)-3-(propan-2-yl)[1,2,4]triazolo[4,3-b]pyridazine] | 29.7% |
| FC(F)(F)c1nnc2ccc(-c3ccc(Oc4cccnc4)cc3)cn12 [BHN-100, 6-[4-(pyridin-3-yloxy)phenyl]-3-(trifluoromethyl)[1,2,4]triazolo[4,3-a]pyridine] | 27.6% |
| N#CCOc1cc(OC(F)(F)F)ccc1-c1ccc2nnc(C(F)(F)F)n2c1 [BHN-181, {5-(trifluoromethoxy)-2-[3-(trifluoromethyl)[1,2,4]triazolo[4,3-a]pyridin-6-yl]phenoxy}acetonitrile] | 18.7% |
| N#Cc1nc(C(F)(F)F)n2cc(-c3ccc(OC(F)(F)F)cc3)ccc12 [BHN-117, 6-[4-(trifluoromethoxy)phenyl]-3-(trifluoromethyl)imidazo[1,5-a]pyridine-1-carbonitrile] | 66.3% |
| Nc1cc(-c2ccc3nnc(C(F)(F)F)n3c2)ccc1OC(F)(F)F [BHN-134, 2-(trifluoromethoxy)-5-[3-(trifluoromethyl)[1,2,4]triazolo[4,3-a]pyridin-6-yl]aniline] | 27.8% |
| FC(F)(F)Oc1ccc(-c2ccc3nnc(C(F)(F)OCc4ccnc(N5CCCCC5)c4)n3c2)cc1 [BHN-320, 3-(difluoro{[2-(piperidin-1-yl)pyridin-4-yl]methoxy}methyl)-6-[4-(trifluoromethoxy)phenyl][1,2,4]triazolo[4,3-a]pyridine] | 76.3% |
| CC1(C)Cc2cccc(COC(F)(F)c3nnc4ccc(-c5ccc(OC(F)(F)F)cc5)cn34)c2O1 [BHN-321, 3-{[(2,2-dimethyl-2,3-dihydro-1-benzofuran-7-yl)methoxy](difluoro)methyl}-6-[4-(trifluoromethoxy)phenyl][1,2,4]triazolo[4,3-a]pyridine] | 65.6% |
| OCC(F)(F)c1nnc2ccc(C#Cc3ccc(C(F)(F)F)cc3)cn12 [BHN-198, 2,2-difluoro-2-(6-{[4-(trifluoromethyl)phenyl]ethynyl}[1,2,4]triazolo[4,3-a]pyridin-3-yl)ethanol] | 17.4% |
| CC(C)c1nc(COC(F)(F)c2nnc3ccc(-c4ccc(OC(F)(F)F)cc4)cn23)no1 [BHN-208, 3-(difluoro{[5-(propan-2-yl)-1,2,4-oxadiazol-3-yl]methoxy}methyl)-6-[4-(trifluoromethoxy)phenyl][1,2,4]triazolo[4,3-a]pyridine] | 70.5% |
| FC(F)(F)Oc1ccc(-c2ccc3nnc(C(F)(F)OCc4cnn(-c5ccccc5)c4)n3c2)cc1 [BHN-287, 3-{difluoro[(1-phenyl-1H-pyrazol-4-yl)methoxy]methyl}-6-[4-(trifluoromethoxy)phenyl][1,2,4]triazolo[4,3-a]pyridine] | 47.1% |
| Cn1nc(COC(F)(F)c2nnc3ccc(-c4ccc(OC(F)(F)F)cc4)cn23)c2ccccc21 [BHN-307, 3-{difluoro[(1-methyl-1H-indazol-3-yl)methoxy]methyl}-6-[4-(trifluoromethoxy)phenyl][1,2,4]triazolo[4,3-a]pyridine] | 68.5% |
| Cn1ccc(COC(F)(F)c2nnc3ccc(-c4ccc(OC(F)(F)F)cc4)cn23)n1 [BHN-301, 3-{difluoro[(1-methyl-1H-pyrazol-3-yl)methoxy]methyl}-6-[4-(trifluoromethoxy)phenyl][1,2,4]triazolo[4,3-a]pyridine] | 29.9% |
| COc1cc(OC(F)(F)F)ccc1-c1ccc2nnc(C(F)(F)F)n2c1 [BHN-152, 6-[2-methoxy-4-(trifluoromethoxy)phenyl]-3-(trifluoromethyl)[1,2,4]triazolo[4,3-a]pyridine] | 71.8% |
| O=C(NCC(F)(F)c1nnc2ccc(-c3ccc(OC(F)(F)F)cc3)cn12)Nc1ccccc1 [BHN-263, 1-(2,2-difluoro-2-{6-[4-(trifluoromethoxy)phenyl][1,2,4]triazolo[4,3-a]pyridin-3-yl}ethyl)-3-phenylurea] | 22.6% |
| COCC(F)(F)c1nnc2ccc(-c3ccc(OC(F)(F)F)c(C)c3)cn12 [BHN-188, 3-(1,1-difluoro-2-methoxyethyl)-6-[3-methyl-4-(trifluoromethoxy)phenyl][1,2,4]triazolo[4,3-a]pyridine] | 41.3% |
| Cc1cc(-c2ccc(OC(F)(F)F)cc2)cn2nnnc12 [BHN-268, 8-methyl-6-[4-(trifluoromethoxy)phenyl]tetrazolo[1,5-a]pyridine] | 43.2% |
| Cc1oc(-c2ccccc2)nc1COC(F)(F)c1nnc2ccc(-c3ccc(OC(F)(F)F)cc3)cn12 [BHN-229, 3-{difluoro[(5-methyl-2-phenyl-1,3-oxazol-4-yl)methoxy]methyl}-6-[4-(trifluoromethoxy)phenyl][1,2,4]triazolo[4,3-a]pyridine] | 72.2% |
| FC(F)c1nnc2ccc(-c3ccc(OC(F)(F)F)cc3)nn12 [BHN-12, 3-(difluoromethyl)-6-[4-(trifluoromethoxy)phenyl][1,2,4]triazolo[4,3-b]pyridazine] | 39.6% |
| FC(F)(F)c1nnc2ccc(-c3ccc(Oc4ccc(Cl)cc4)cc3)cn12 [BHN-65, 6-[4-(4-chlorophenoxy)phenyl]-3-(trifluoromethyl)[1,2,4]triazolo[4,3-a]pyridine] | 55.6% |
| COc1ccc(N2CCN(CCOC(F)(F)c3nnc4ccc(-c5ccc(OC(F)(F)F)cc5)cn34)CC2)cc1 [BHN-264, 3-(difluoro{2-[4-(4-methoxyphenyl)piperazin-1-yl]ethoxy}methyl)-6-[4-(trifluoromethoxy)phenyl][1,2,4]triazolo[4,3-a]pyridine] | 54.3% |

same assay, conditions: compound at 10 μM; HEK293 cells expressing hNav1.5; late INa generated with 10 μM Tefluthrin (or 50 nM ATX II); read-out: LateINa_10 uM (percent block of late INa)

| SMILES | inhibition at 10 µM |
| --- | --- |
| CC(C)c1nnc2ccc(-c3ccc(Oc4ccccc4)cc3)nn12 [BHN-32, 6-(4-phenoxyphenyl)-3-(propan-2-yl)[1,2,4]triazolo[4,3-b]pyridazine] | 83.4% |
| FC(F)(F)c1nnc2ccc(-c3cccc(Oc4ccccc4)c3)cn12 [BHN-9, 6-(3-phenoxyphenyl)-3-(trifluoromethyl)[1,2,4]triazolo[4,3-a]pyridine] | 75.7% |
| Cc1nc2ccc(-c3cccc(Oc4ccccc4)c3)cn2n1 [BHN-348, 2-methyl-6-(3-phenoxyphenyl)[1,2,4]triazolo[1,5-a]pyridine] | 65.7% |
| CC(C)(C)c1nnc2ccc(-c3ccc(Oc4ccccc4)cc3)nn12 [BHN-35, 3-tert-butyl-6-(4-phenoxyphenyl)[1,2,4]triazolo[4,3-b]pyridazine] | 68.6% |
| FC(F)(F)c1nnc2ccc(-c3ccc(Oc4ccccc4)cc3)nn12 [BHN-11, 6-(4-phenoxyphenyl)-3-(trifluoromethyl)[1,2,4]triazolo[4,3-b]pyridazine] | 44.7% |
| c1ccc(Oc2ccc(-c3ccc4nncn4n3)cc2)cc1 [BHN-22, 6-(4-phenoxyphenyl)[1,2,4]triazolo[4,3-b]pyridazine] | 59% |
| FC(F)c1nnc2ccc(-c3ccc(OC(F)(F)F)cc3)nn12 [BHN-12, 3-(difluoromethyl)-6-[4-(trifluoromethoxy)phenyl][1,2,4]triazolo[4,3-b]pyridazine] | 79.7% |
| FC(F)(F)Oc1ccc(-c2ccc3c(-c4ccccc4)nc(C(F)(F)F)n3c2)cc1 [BHN-34, 1-phenyl-6-[4-(trifluoromethoxy)phenyl]-3-(trifluoromethyl)imidazo[1,5-a]pyridine] | 33.4% |
| Cn1cc(-c2nnc3ccc(-c4ccc(OC(F)(F)F)cc4)cn23)cn1 [BHN-82, 3-(1-methyl-1H-pyrazol-4-yl)-6-[4-(trifluoromethoxy)phenyl][1,2,4]triazolo[4,3-a]pyridine] | 38.9% |
| FC(F)(F)c1nnc2ccc(-c3ccc(Oc4ccc(Cl)cc4)cc3)cn12 [BHN-65, 6-[4-(4-chlorophenoxy)phenyl]-3-(trifluoromethyl)[1,2,4]triazolo[4,3-a]pyridine] | 85.7% |
